What is called Kd is the free concentration of one partner at which half of the binding sites on the other are occupied at equilibrium, for simple one-to-one binding.

Activity calls are given as the source filed them. The calls are words filed in the database; no cut-off is given here. Bridge positions count the residues as written; N and C are the ends. Square brackets hold non-standard residues; d marks the D form. Peptide text beside a SMILES is read from it. S5 = C=CCCC[C@](C)(N)C(=O)O

Assay [1] addresses GTPase KRas (Homo sapiens, UniProt P01116, G12C). Nature of the assay: Binding affinity to biotinylated N-terminal His6-tagged recombinant KRAS G12C mutant (unknown origin) by BLI method.
Assay [2] concerns GTPase KRas (Homo sapiens), P01116 [G12C]. Put plainly: Binding affinity to biotinylated N-terminal His6-tagged recombinant KRAS G12C mutant (unknown origin) assessed as dissociation constant by BLI method.
Assay [3] deals with A549. Put plainly: Antiproliferative activity against human A549 cells harboring KRAS G12S mutant at 0.37 to 10 uM incubated for 24 hrs by MTT assay. The format is functional, cell-based. (Tetrazolium assays rely on reduction of a dye to a coloured formazan, in cell work by metabolically active cells.)
The test system of assay [4] is GTPase KRas (Homo sapiens), P01116 [G12C]. Put plainly: Inhibition of mant-GDP bound N-terminal His6-tagged recombinant KRAS G12C mutant (unknown origin) by fluorescence based assay.
Assay [5] deals with NCI-H358. Put plainly: Antiproliferative activity against human NCI-H358 cells harboring KRAS G12C mutant incubated for 24 hrs by MTT assay. It counts as functional, cell-based.
In assay [6] the test system is GTPase KRas (Homo sapiens), P01116 [G12C]. Put plainly: Binding affinity to biotinylated N-terminal His6-tagged recombinant KRAS G12C mutant (unknown origin) assessed as association constant by BLI method.

Chain of GTPase KRas (Homo sapiens), P01116 [G12C] (P01116 whole entry G12C): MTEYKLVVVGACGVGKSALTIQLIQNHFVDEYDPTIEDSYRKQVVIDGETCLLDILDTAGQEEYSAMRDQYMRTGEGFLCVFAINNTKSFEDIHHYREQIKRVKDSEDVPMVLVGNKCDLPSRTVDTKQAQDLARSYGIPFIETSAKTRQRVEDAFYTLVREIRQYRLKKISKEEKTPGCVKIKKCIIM
Chain of GTPase KRas (P01116 whole entry G12C): as above

On to `CC[C@H](C)[C@H](NC(=O)CNC(=O)[C@H](Cc1ccccc1)NC(=O)[C@H](Cc1ccccc1)NC(=O)[C@H](CCCNC(=N)N)NC(=O)[C@H](CCCNC(=N)N)NC(C)=O)C(=O)N[C@@]1(C)CCC/C=C\CCC[C@@](C)(C(=O)N[C@@H](CC(C)C)C(=O)N[C@@H](CCCCN)C(=O)N[C@H](C(=O)N[C@@H](CCC(=O)O)C(=O)N[C@@H](CCC(=O)O)C(=O)NCC(=O)N[C@@H](CC(N)=O)C(=O)O)[C@@H](C)O)NC(=O)[C@H](CC(N)=O)NC(=O)[C@H]([C@@H](C)O)NC(=O)[C@H](CC(C)C)NC1=O`, for which the Kd in assay [1] amounted to 47.8 µM. Further, the Kdiss in assay [2] is 1.17 ×10⁻¹ /s. Also, the outcome in assay [3] was inactive. The inhibition result in assay [4] was “Dose-dependent effect”. Besides, the Activity entry in assay [5] was “Dose-dependent effect”. Also, the Ka in assay [6] stood at 2.44 ×10³ /M.s.

Take `CC[C@H](C)[C@H](NC(=O)CNC(=O)[C@H](Cc1ccccc1)NC(=O)[C@H](Cc1ccccc1)NC(=O)[C@H](CCCNC(=N)N)NC(=O)[C@H](CCCNC(=N)N)NC(C)=O)C(=O)N[C@@]1(C)CCC/C=C\CCC[C@@](C)(C(=O)N[C@@H](CC(C)C)C(=O)N[C@@H](CCCCN)C(=O)N[C@H](C(=O)N[C@@H](CCC(=O)O)C(=O)N[C@@H](CCC(=O)O)C(=O)NCC(=O)N[C@@H](CC(N)=O)C(=O)O)[C@@H](C)O)NC(=O)[C@H](CC(N)=O)NC(=O)[C@H]([C@@H](C)O)NC(=O)[C@H](CC(C)C)NC(=O)[C@H](CC(=O)O)NC1=O` (Ac-RRFFGI[S5]DLTN[S5]LKTEEGN-OH; staple (Z) 7-12): the Kd in assay [1] stood at 26.1 µM. Moreover, in assay [2], the Kdiss is 1.73 ×10⁻¹ /s. In addition, in assay [6], the Ka stood at 6.65 ×10³ /M.s.

Take `CC[C@H](C)[C@H](NC(=O)CNC(=O)[C@H](Cc1ccccc1)NC(=O)[C@H](Cc1ccccc1)NC(=O)[C@H](CCCNC(=N)N)NC(=O)[C@H](CCCNC(=N)N)NC(C)=O)C(=O)N[C@@]1(C)CCC/C=C\CCC[C@@](C)(C(=O)N[C@@H](CC(C)C)C(=O)N[C@@H](CCCCN)C(=O)N[C@H](C(=O)N[C@@H](CCC(=O)O)C(=O)N[C@@H](CCC(=O)O)C(=O)NCC(=O)N[C@@H](CC(N)=O)C(=O)O)[C@@H](C)O)NC(=O)[C@H](CC(N)=O)NC(=O)[C@H]([C@@H](C)O)NC(=O)[C@H](CC(=O)O)NC(=O)[C@H](CC(C)C)NC1=O` (Ac-RRFFGI[S5]LDTN[S5]LKTEEGN-OH; staple (Z) 7-12): the Kd in assay [1] turned out to be 3.2 µM. Besides, the Kdiss in assay [2] is 1.19 ×10⁻² /s. Also, the Ka in assay [6] stood at 3.73 ×10³ /M.s.

`CC[C@H](C)[C@H](NC(=O)CNC(=O)[C@H](Cc1ccccc1)NC(=O)[C@H](Cc1ccccc1)NC(=O)[C@H](CCCNC(=N)N)NC(=O)[C@H](CCCNC(=N)N)NC(C)=O)C(=O)N[C@@]1(C)CCC/C=C\CCC[C@@](C)(C(=O)N[C@@H](CC(C)C)C(=O)N[C@@H](CCCCN)C(=O)N[C@H](C(=O)N[C@@H](CCC(=O)O)C(=O)N[C@@H](CCC(=O)O)C(=O)NCC(=O)N[C@@H](CC(N)=O)C(=O)O)[C@@H](C)O)NC(=O)[C@H](CC(N)=O)NC(=O)[C@H](CC(=O)O)NC(=O)[C@H]([C@@H](C)O)NC(=O)[C@H](CC(C)C)NC1=O` (Ac-RRFFGI[S5]LTDN[S5]LKTEEGN-OH; staple (Z) 7-12): the Kd in assay [1] is 8.81 µM. Further, the Kdiss in assay [2] was determined as 4.07 ×10⁻² /s. In assay [6], the Ka turned out to be 4.62 ×10³ /M.s.

The record behind these values is ChEMBL document CHEMBL4373743, “Selective apoptosis-inducing activity of synthetic hydrocarbon-stapled SOS1 helix with d-amino acids in H358 cancer cells expressing KRASG12C” (Eur J Med Chem, 2020).
